What was measured:
Conditions in all cases: PC-3
[1] = biological target: T1, MAP/microtubule affinity-regulating kinase 4 (Homo sapiens) (UniProt Q96L34); assay: Inhibition of MARK4 in human PC3 cell lysates at 10 uM using desthiobiotin-tagged ATP probe AX9989 followed by trypsinization by LC/MS analysis
T1 sequence (whole entry): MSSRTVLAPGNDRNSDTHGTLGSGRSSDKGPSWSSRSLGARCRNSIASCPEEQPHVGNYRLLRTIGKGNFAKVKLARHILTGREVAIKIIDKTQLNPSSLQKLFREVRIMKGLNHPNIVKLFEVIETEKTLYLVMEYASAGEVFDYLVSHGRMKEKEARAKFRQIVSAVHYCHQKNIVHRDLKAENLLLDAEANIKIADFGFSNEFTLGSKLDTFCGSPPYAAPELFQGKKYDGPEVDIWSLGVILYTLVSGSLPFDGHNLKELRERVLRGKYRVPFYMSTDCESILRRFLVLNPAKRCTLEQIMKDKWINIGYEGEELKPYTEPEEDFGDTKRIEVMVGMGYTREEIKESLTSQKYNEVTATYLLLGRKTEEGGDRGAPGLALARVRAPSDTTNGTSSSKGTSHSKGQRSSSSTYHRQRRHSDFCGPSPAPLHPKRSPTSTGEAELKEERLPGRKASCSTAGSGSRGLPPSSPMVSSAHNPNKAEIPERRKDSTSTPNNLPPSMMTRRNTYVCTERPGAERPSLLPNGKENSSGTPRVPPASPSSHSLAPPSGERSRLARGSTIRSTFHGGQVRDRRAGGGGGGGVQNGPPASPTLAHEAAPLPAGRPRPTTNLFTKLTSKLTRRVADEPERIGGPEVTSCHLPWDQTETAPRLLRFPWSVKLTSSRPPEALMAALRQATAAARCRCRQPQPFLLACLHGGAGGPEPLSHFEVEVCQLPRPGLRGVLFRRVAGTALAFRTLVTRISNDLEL

[2] = Inhibition of PITSLRE in human PC3 cell lysates at 10 uM using desthiobiotin-tagged ATP probe AX9989 followed by trypsinization by LC/MS analysis; format: cell-free
[3] = biological target: T2, Mitogen-activated protein kinase kinase kinase 2 (Homo sapiens) (UniProt Q9Y2U5); assay: Inhibition of MAP3K2 in human PC3 cell lysates at 10 uM using desthiobiotin-tagged ATP probe AX9989 followed by trypsinization by LC/MS analysis
T2 sequence (whole entry): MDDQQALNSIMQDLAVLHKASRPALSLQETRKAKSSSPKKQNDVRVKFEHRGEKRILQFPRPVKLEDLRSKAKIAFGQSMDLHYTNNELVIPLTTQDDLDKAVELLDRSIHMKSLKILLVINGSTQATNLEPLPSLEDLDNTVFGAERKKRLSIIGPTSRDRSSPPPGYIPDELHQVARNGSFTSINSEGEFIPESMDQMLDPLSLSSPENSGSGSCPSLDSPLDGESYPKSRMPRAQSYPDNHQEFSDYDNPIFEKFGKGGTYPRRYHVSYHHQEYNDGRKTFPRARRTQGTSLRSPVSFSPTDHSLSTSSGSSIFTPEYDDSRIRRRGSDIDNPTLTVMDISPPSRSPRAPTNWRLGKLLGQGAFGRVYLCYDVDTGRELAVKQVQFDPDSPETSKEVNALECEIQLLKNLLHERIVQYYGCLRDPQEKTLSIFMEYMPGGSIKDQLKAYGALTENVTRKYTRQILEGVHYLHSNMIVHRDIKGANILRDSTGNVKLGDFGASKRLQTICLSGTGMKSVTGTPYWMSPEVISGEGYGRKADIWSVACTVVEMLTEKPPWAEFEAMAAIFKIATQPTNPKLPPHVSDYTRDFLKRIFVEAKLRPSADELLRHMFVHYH

[4] = biological target: Cyclin-dependent kinase 11B (Homo sapiens) (UniProt P21127); assay: Inhibition of CDK11 in human PC3 cell lysates at 10 uM using desthiobiotin-tagged ATP probe AX9989 followed by trypsinization by LC/MS analysis
Cyclin-dependent kinase 11B (Homo sapiens), sequence (P21127 whole entry): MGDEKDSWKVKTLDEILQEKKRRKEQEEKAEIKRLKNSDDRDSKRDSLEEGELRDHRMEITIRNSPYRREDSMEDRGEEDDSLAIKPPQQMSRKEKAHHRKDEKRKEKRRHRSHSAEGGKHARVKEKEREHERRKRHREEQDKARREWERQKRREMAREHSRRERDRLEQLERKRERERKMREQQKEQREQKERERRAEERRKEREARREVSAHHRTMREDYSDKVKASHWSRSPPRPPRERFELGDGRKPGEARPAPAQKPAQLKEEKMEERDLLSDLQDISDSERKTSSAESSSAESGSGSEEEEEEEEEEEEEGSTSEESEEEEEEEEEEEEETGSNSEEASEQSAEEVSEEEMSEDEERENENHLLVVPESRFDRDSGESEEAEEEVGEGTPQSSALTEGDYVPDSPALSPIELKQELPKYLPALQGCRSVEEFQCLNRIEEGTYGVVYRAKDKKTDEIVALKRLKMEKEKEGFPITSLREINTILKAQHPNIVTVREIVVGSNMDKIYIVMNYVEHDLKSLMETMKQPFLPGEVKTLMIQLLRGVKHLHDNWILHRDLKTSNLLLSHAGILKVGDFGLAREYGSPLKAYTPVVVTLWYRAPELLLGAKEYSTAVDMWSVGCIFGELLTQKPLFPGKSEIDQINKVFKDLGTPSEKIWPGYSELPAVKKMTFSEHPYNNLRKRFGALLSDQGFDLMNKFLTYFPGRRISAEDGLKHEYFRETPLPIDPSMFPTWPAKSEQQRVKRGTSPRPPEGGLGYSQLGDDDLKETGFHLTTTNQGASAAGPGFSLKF

[5] = biological target: T3, Serine/threonine-protein kinase 3 (Homo sapiens) (UniProt Q13188); assay: Inhibition of MST2 in human PC3 cell lysates at 10 uM using desthiobiotin-tagged ATP probe AX9989 followed by trypsinization by LC/MS analysis
T3 sequence (whole entry): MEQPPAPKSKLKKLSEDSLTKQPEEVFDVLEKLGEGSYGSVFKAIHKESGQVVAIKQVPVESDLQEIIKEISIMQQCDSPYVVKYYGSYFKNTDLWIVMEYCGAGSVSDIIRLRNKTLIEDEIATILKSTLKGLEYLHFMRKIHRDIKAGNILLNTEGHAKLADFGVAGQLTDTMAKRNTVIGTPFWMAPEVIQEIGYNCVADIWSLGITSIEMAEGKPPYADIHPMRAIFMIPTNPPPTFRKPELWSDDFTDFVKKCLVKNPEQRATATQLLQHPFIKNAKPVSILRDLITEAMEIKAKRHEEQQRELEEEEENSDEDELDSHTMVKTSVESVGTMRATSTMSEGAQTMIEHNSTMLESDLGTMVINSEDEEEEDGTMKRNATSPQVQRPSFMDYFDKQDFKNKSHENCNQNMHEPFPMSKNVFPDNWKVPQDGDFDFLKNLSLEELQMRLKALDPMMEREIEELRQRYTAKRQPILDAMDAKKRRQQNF

[6] = biological target: T4, SNF-related serine/threonine-protein kinase (Homo sapiens) (UniProt Q9NRH2); assay: Inhibition of SNRK in human PC3 cell lysates at 10 uM using desthiobiotin-tagged ATP probe AX9989 followed by trypsinization by LC/MS analysis
T4 sequence (whole entry): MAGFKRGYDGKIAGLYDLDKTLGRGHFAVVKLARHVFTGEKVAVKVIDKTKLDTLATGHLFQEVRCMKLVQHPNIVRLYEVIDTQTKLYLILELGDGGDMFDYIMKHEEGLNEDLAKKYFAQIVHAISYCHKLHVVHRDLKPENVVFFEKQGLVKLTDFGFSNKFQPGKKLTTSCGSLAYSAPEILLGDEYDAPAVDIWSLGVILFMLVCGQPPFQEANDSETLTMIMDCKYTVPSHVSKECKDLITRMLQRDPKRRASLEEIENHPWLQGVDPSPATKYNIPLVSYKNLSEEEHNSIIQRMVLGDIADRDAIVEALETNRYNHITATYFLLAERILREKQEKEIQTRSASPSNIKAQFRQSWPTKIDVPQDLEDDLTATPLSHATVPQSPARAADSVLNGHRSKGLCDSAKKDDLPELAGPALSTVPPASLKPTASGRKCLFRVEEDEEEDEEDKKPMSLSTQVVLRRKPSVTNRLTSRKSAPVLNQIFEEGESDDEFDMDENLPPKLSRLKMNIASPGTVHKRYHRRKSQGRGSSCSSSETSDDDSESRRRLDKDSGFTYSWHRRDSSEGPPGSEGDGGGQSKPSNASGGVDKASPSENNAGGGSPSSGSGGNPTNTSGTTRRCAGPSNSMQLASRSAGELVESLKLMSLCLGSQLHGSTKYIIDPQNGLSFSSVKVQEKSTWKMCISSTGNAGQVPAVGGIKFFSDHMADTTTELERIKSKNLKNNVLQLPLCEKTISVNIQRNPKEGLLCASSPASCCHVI

SMILES | inhibition [1] [%] | inhibition [2] [%] | inhibition [3] [%] | inhibition [4] [%] | inhibition [5] [%] | inhibition [6] [%]
O=C(N[C@H](CO)c1ccccc1)c1ccc2nc(N[C@H]3CC[C@H](O)CC3)c3nccn3c2c1 | < 35 | < 35 | < 35 | < 35 | < 35 | < 35
CC(C)(NC(=O)c1ccc2nc(N[C@H]3CC[C@H](O)CC3)c3nccn3c2c1)c1ccccc1 | < 35 | < 35 | < 35 | < 35 | < 35 | < 35
O=C(NC1(Cc2ccc(F)cc2)CC1)c1ccc2nc(N[C@H]3CC[C@H](O)CC3)c3nccn3c2c1 | < 35 | < 35 | < 35 | < 35 | < 35 | < 35
O=C(O)c1ccc2nc(N[C@H]3CC[C@H](O)CC3)c3nccn3c2c1 | < 35 | 99.3 | < 35 | < 35 | < 35 | < 35
CCC[C@@H](NC(=O)c1ccc2nc(N[C@H]3CC[C@H](O)CC3)c3nccn3c2c1)c1ccccc1 | < 35 | < 35 | < 35 | < 35 | < 35 | < 35
C[C@H](NC(=O)c1ccc2nc(N[C@H]3CC[C@H](O)CC3)c3nccn3c2c1)c1ccccc1 | < 35 | < 35 | < 35 | < 35 | < 35 | < 35
O=C(NC1(c2ccccc2)CC1)c1ccc2nc(N[C@H]3CC[C@H](O)CC3)c3nccn3c2c1 | < 35 | < 35 | < 35 | < 35 | < 35 | < 35
O=C(NC1(c2ccccc2)CCC1)c1ccc2nc(N[C@H]3CC[C@H](O)CC3)c3nccn3c2c1 | < 35 | < 35 | < 35 | < 35 | < 35 | < 35
C[C@@H](NC(=O)c1ccc2nc(N[C@H]3CC[C@H](O)CC3)c3nccn3c2c1)c1ccccc1 | < 35 | < 35 | < 35 | < 35 | < 35 | < 35
O=C(NC1(c2ccc(F)cc2)CC1)c1ccc2nc(N[C@H]3CC[C@H](O)CC3)c3nccn3c2c1 | < 35 | < 35 | < 35 | < 35 | < 35 | < 35
NC(=O)c1ccc2nc(N[C@H]3CC[C@H](O)CC3)c3nccn3c2c1 | < 35 | 95.6 | < 35 | < 35 | < 35 | < 35
CC[C@@H](NC(=O)c1ccc2nc(N[C@H]3CC[C@H](O)CC3)c3nccn3c2c1)c1ccccc1 | < 35 | < 35 | < 35 | < 35 | < 35 | < 35

From ChEMBL document CHEMBL2417377, “Hit-to-lead optimization and kinase selectivity of imidazo[1,2-a]quinoxalin-4-amine derived JNK1 inhibitors” (Bioorg Med Chem Lett, 2013)
